Results: patent US8399512B2, “Biocompatible biodegradable fumagillin analog conjugates” (Mersana Therapeutics, Inc., priority 2007, dated 2013)

Columns and labels:
human MetAP-2 enzyme = human MetAP-2 enzyme (Homo sapiens, UniProt P50579); assay: MetAP-2 inhibition (release of AMC from Met-Gly-Pro-AMC); assay type: biochemical
Protocol: The test samples were evaluated for their ability to inhibit human MetAP-2 enzyme. The compounds were added at varying concentrations to human MetAP-2 enzyme (6 nM) in a buffered medium containing 20 mM Hepes, pH 7.4, 100 mM KCl, 0.1 mM Co(II), 10% glycerol, 5 mg/ml of L-Amino acid oxidase, 10 mg/ml of peroxidase, 10 mg/ml of o-dianisidine, and 2 mM of Met-Ser-Ala at 37° C. After 10 minutes incubation the reaction is started by adding the substrate Met-Gly-Pro-AMC to 2 mM and the release of AMC is measured with a Decan Plate reader (Excitation at 345 nm, emission at 445 nm). The kinetic data is recorded at 30 sec intervals for 30 min. Table 1 lists some of the conjugates and compounds tested along with their approximate IC50 values for inhibiting Met-AP2.

[1] = system: human umbilical vein endothelial cells (HUVECs); assay: Inhibitory effect on HUVEC cell growth (MTS/PES colorimetry); assay type: cell-based; details: Homo sapiens, 120 h, cultured 5 days, MTS/PES absorbance 490 nm
Protocol: Using human umbilical vein endothelial cells (HUVECs), the effect of the fumagillin analog conjugates and the fumagillin analogs on cell growth was evaluated.
The HUVECs were added to M199 medium supplemented with 20% FBS, after which the cells were incubated at 37° C. under 5% CO2. 96-well plates were seeded at 5,000 cells/well in a total volume of 100 μL. The cells were left overnight to attach to the plate. Cells were subcultured a maximum of 15 times before being discarded.
To evaluate the inhibitory activity of the fumagillin conjugate or the fumagillin analog alone on the growth of HUVEC cells, the conjugate or fumagillin analog was dissolved in the required amount of 0.9% saline, vortexed briefly to wet and disperse the solids, followed by vortexing for a total of 30 min. […] The cells were treated with the conjugate solution or fumagillin analog solution at various concentrations ranging from 30 nM to 0.01 nM, and cultured for 5 days at 37° C.
Colorimetry was performed to determine the extent of cell growth by adding 20 μL of MTS/PES reagent to each well, incubation for 4 h at 37° C. followed by measuring the absorbance at 490 nm.

B16F10 tumor cells [2] = assay: Tumor growth delay in B16F10 mouse melanoma; assay type: in vivo; details: IV, q3d × 4, BDF1 mice
Protocol: BDF1 female mice (N=6) with 1×10^6 B16F10 tumor cells positioned subcutaneous in the flank were treated with various fumagillin conjugates of the invention. Tumor growth was monitored in parallel with positive and negative controls of cyclophosphamide and saline respectively. Treatment began when tumors reached an average size of 80-120 mg and tumor volumes were measured two times per week until animals reached an endpoint tumor volume of 2 grams or 45 days, whichever came first. Conjugates were administered as solutions in saline intravenously at dose levels of 30-100 mg/kg (expressed as fumagillin analog equivalents) on a schedule of q3dx4. Treatment outcomes were assessed in terms of percent tumor growth delay (% TGD), (see FIG. 1) defined as the percent increase in median time to endpoint for mice treated with an agent compared to those treated with saline.

[3] = Open field activity levels in mice; assay type: in vivo, mouse; details: C57B1/6 mice, 50-100 mg/kg for four weeks; conjugates IV, TNP-470 subcutaneously; versus saline
Protocol: C57B1/6 female mice (N=8) were housed until they reached 11 weeks of age. Animals were then regularly administered with fumagillin conjugates or TNP-470 and their activity levels monitored in an open field arena. Activity levels were assessed with saline as a control. Conjugates were administered as solutions in saline intravenously at dose levels of 50-100 mg/kg (expressed as fumagillin-analog equivalents) and TNP-470 was administered subcutaneously at dose levels of 50-100 mg/kg. Dosing was performed for four weeks on schedules ranging from q2d to once weekly, and activity levels were observed four times throughout the study: (1) prior to compound administration, (2) after one week of dosing, (3) after two weeks of dosing, and (4) following the final week of dosing. Animals were placed in the open field arena for 10 minutes per trial and their activity monitored in terms of travel distance, peripheral squares crossed, center squares crossed, and rearing events.

B16F10 tumor cells [4] = assay: Tumor growth delay in B16F10 mouse melanoma; assay type: in vivo; details: 80 mg/kg fumagillin analog equiv., IV, qod × 4, BDF1 mice
[5] = 80 mg/kg fumagillin analog equiv.
[6] = 60 mg/kg fumagillin analog equiv.

Chain of human MetAP-2 enzyme (P50579 whole entry): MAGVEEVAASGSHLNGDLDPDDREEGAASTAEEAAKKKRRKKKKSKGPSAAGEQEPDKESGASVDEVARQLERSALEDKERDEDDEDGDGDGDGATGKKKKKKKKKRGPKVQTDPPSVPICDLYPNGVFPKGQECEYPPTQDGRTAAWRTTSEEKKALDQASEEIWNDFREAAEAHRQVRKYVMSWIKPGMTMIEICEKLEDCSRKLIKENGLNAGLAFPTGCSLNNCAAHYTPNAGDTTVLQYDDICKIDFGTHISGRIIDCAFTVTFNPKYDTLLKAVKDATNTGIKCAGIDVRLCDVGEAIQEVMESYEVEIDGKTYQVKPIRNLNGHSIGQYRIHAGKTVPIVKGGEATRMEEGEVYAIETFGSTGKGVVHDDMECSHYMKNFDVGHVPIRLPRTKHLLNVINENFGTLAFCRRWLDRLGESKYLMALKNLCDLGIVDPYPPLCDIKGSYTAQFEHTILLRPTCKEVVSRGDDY

Structure (SMILES) | IC50 [1] [µM] | % TGD (B16F10 tumor cells [2]; [5]) | also measured
CO[C@H]1C([C@@]2(C)O[C@@H]2CC=C(C)C)[C@]2(CC[C@H]1OC(=O)N[C@@H](C(N)=O)C(C)C)CO2 (stereo partly shown) [PPI-2458, reference compound] |  |  | IC50 (human MetAP-2 enzyme): < 0.01 µM
CO[C@H]1[C@H](C2(C)O[C@@H]2CC=C(C)C)[C@]2(CC[C@H]1OC(=O)NCCc1ccc(NC(=O)[C@H](C)N)cc1)CO2 (stereo partly shown) [Compound 51] | < 0.025 |  | IC50 (human MetAP-2 enzyme): < 0.01 µM
CO[C@@H]1[C@H](NC(=O)NC(=O)CSc2ccc(N)cc2)CC[C@]2(CO2)[C@H]1[C@@]1(C)O[C@@H]1CC=C(C)C [Compound 39] | < 0.025 |  | IC50 (human MetAP-2 enzyme): < 0.01 µM
CO[C@H]1[C@H](C2(C)O[C@@H]2CC=C(C)C)[C@]2(CC[C@H]1OC(=O)N1CCN(CCO)CC1)CO2 (stereo partly shown) [Compound 7] | < 0.025 | 5-20% | 
CO[C@H]1C([C@@]2(C)O[C@@H]2CC=C(C)C)[C@]2(CC[C@H]1OC(=O)NC(=O)CCl)CO2 (stereo partly shown) [TNP-470, reference compound] |  |  | rearing-event activity levels [3]: increased rearing-event activity levels; IC50 (human MetAP-2 enzyme): < 0.01 µM
CO[C@H]1[C@H](C2(C)O[C@@H]2CC=C(C)C)[C@]2(CC[C@H]1OC(=O)C(=O)N(C)OC)CO2 (stereo partly shown) [Compound 15] | > 0.03 | >50% | 
CO[C@H]1[C@H](C2(C)O[C@@H]2CC=C(C)C)[C@]2(CC[C@H]1OC(=O)N[C@@H](C)c1ccccc1)CO2 (stereo partly shown) [Compound 6] | < 0.025 | 5-20% | 
CO[C@H]1[C@H](C2(C)O[C@@H]2CC=C(C)C)[C@]2(CC[C@H]1OC(=O)N1CC3CC1CN3)CO2 (stereo partly shown) [Compound 26] | < 0.025 |  | % TGD (B16F10 tumor cells [2]; [6]): 5-20%
COc1ccc2[nH]cc(CCC(=O)O[C@@H]3CC[C@]4(CO4)[C@@H](C4(C)O[C@@H]4CC=C(C)C)[C@@H]3OC)c2c1 (stereo partly shown) [Compound 32] | < 0.025 | 20-50% | 
CO[C@H]1[C@H](C2(C)O[C@@H]2CC=C(C)C)[C@]2(CC[C@H]1OC(=O)NCCc1ccc(NC(C)=O)cc1)CO2 (stereo partly shown) [Compound 18] | < 0.025 | 5-20% | 
COC1=CCC[C@]2(CO2)[C@H]1C1(C)O[C@@H]1CC=C(C)C (stereo partly shown) [Compound 27] | < 0.025 |  | % TGD (B16F10 tumor cells [2]; 50 mg/kg fumagillin analog equiv.): 5-20%
CO[C@H]1[C@H](C2(C)O[C@@H]2CC=C(C)C)[C@]2(CC[C@H]1NC(=O)C13CCC(C(=O)NCCCO)(CC1)CC3)CO2 (stereo partly shown) [Compound 38] | 0.025 to 0.1 | 5-20% | 
CO[C@H]1[C@H](C2(C)O[C@@H]2CC=C(C)C)[C@]2(CC[C@H]1OC(=O)N[C@H](C)c1ccccc1)CO2 (stereo partly shown) [Compound 12] | < 0.025 | 5-20% | 
COc1ccc2c(ccn2C(=O)O[C@@H]2CC[C@]3(CO3)[C@@H](C3(C)O[C@@H]3CC=C(C)C)[C@@H]2OC)c1 (stereo partly shown) [Compound 23] | < 0.025 | 5-20% | 
CO[C@@H]1[C@H](O)CC[C@]2(CO2)[C@H]1C1(C)O[C@@H]1CC=C(C)C (stereo partly shown) [Compound 25] | > 0.03 | 20-50% | 
CO[C@H]1[C@H](C2(C)O[C@@H]2CC=C(C)C)[C@]2(CC[C@H]1OC(=O)N1CCN(C(C)=O)CC1)CO2 (stereo partly shown) [Compound 10] | < 0.025 |  | % TGD (B16F10 tumor cells [2]; [6]): 20-50%
CO[C@H]1[C@H](C2(C)O[C@@H]2CC=C(C)C)[C@]2(CC[C@H]1OC(=O)NCc1ccc(N)cc1)CO2 (stereo partly shown) [Compound 8] | < 0.025 |  | IC50 (human MetAP-2 enzyme): < 0.01 µM
CO[C@H]1[C@H](C2(C)O[C@@H]2CC=C(C)C)[C@]2(CC[C@H]1OC(=O)NCCc1ccc(N)cc1)CO2 (stereo partly shown) [Compound 11] | < 0.025 |  | % TGD (B16F10 tumor cells [2]; 65 mg/kg fumagillin analog equiv.): 20-50%
CO[C@H]1[C@H](C2(C)O[C@@H]2CC=C(C)C)[C@]2(CC[C@H]1NC(=O)C13CCC(C(=O)O)(CC1)CC3)CO2 (stereo partly shown) [Compound 40] | 0.025 to 0.1 |  | % TGD (B16F10 tumor cells [4]): 20-50%
